Publication PMC8382911 (Molecular Biology and Evolution, 2021)
“And” between values parts separate entries of the source, which are not always exact repeats. Identical values can stand only once.

T1: N. maga MalDH (Natrialba magadii, UniProt D3SVD7)
T1 construct: gene mdh; tetrameric MalDH family
T1 sequence (D3SVD7 1-304): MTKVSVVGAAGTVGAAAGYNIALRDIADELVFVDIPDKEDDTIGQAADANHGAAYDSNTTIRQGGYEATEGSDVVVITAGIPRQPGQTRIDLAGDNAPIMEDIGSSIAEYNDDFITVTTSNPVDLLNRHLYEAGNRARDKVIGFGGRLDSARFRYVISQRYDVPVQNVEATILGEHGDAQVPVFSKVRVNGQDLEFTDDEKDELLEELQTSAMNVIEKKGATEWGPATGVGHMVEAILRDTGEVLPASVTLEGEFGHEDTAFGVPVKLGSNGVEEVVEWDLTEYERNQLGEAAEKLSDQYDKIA

T2: H. mari MalDH (Haloarcula marismortui, UniProt Q07841)
T2 construct: gene mdh; tetramer about 130 kDa
T2 sequence (Q07841 1-304): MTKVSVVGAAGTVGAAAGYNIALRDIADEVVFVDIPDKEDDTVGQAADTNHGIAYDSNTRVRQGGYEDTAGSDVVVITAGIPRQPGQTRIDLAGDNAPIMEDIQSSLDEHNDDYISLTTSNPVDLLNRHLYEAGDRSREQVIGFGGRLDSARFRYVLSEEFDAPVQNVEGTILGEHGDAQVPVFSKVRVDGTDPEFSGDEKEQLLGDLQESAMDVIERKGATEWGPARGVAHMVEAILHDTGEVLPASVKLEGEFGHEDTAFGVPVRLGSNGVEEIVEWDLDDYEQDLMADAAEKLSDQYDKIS

T3: Anc80 MalDH (synthetic construct, UniProt Z9KM54M7L8)
T3 construct: tetramer
T3 sequence (Z9KM54M7L8 1-304): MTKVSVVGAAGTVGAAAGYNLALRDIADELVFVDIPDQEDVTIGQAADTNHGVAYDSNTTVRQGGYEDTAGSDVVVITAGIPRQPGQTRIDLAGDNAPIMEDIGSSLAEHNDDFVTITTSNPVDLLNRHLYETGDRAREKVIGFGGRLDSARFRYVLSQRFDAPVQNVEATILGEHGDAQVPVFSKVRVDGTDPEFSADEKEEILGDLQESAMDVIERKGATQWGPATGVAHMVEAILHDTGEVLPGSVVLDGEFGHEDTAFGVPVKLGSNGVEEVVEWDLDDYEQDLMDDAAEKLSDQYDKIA

T4: Anc88 MalDH (synthetic construct, UniProt Z9B5L9LSO7)
T4 sequence (Z9B5L9LSO7 1-304): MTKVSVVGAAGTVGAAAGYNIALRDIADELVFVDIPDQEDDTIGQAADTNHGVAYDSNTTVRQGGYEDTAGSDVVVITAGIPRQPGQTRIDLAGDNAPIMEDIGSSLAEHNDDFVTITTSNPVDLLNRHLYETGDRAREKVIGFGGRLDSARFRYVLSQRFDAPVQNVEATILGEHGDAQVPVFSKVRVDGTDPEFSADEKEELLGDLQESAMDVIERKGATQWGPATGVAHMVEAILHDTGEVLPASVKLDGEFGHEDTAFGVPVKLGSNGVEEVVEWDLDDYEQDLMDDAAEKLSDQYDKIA

B1: Haloferax volcanii malate dehydrogenase (enzyme, UniProt Q9P9L2 1-304, looked up)
chain: MTKVSVIGAAGTVGAAAGYNLALRDVCDELVFVDIPKMEDKTVGQAADTNHGIAYDSNTVVTQGGYEDTAGSDVVVITAGIPRQPGQTRIDLAGDNAPIMDDIGSSLAEYNDDFVSITTSNPVDLLNRHLYETGDRDRHKVIGFGGRLDSARFRYVLSQRFDVPVKNVDATILGEHGDAQVPVFSKVRVDGNDPAFSADEKEEILGDLQESAMDVIERKGATQWGPATGVAHMVEAVLHDTGEVLPGSLVLDGEFGYEDTAFGVPVKLGSNGIEEVVEWDLDDYEADLMDDAAEKLRDQYDEIA
notes: malate dehydrogenase (MalDH) of Haloferax volcanii; S6-S8; Tetramer in molar KCl; the oligomeric state depends on salt type and concentration (monomer in 0.2 M KCl); also called H. volc MalDH; MalDH of H. volcanii

Experiments:
[1] = test system: Anc78 MalDH (LCAHa) (synthetic construct); assay: NADH oxidation at […] nm, OAA concentration profile; type: biochemical; conditions: 3.8 M KCl, 50 mM Tris-HCl pH 7, 25 C, 0.2 mM NADH; inhibited by excess substrate
N. maga MalDH = target: T1, N. maga MalDH; assay: NADH oxidation at […] nm, OAA concentration profile; type: biochemical; conditions: 3.8 M KCl, 50 mM Tris-HCl pH 7, 25 C, 0.2 mM NADH; no inhibition by excess substrate
H. mari MalDH = target: T2, H. mari MalDH; assay: NADH oxidation at […] nm, OAA concentration profile; type: biochemical; conditions: 3.8 M KCl, 50 mM Tris-HCl pH 7, 25 C, 0.2 mM NADH; no inhibition by excess substrate
Anc80 MalDH = target: T3, Anc80 MalDH; assay: NADH oxidation at […] nm, OAA concentration profile; type: biochemical; conditions: 3.8 M KCl, 50 mM Tris-HCl pH 7, 25 C, 0.2 mM NADH; inhibited by excess substrate
Anc88 MalDH = target: T4, Anc88 MalDH; assay: NADH oxidation at […] nm, OAA concentration profile; type: biochemical; conditions: 3.8 M KCl, 50 mM Tris-HCl pH 7, 25 C, 0.2 mM NADH; no inhibition by excess substrate
[2] = target: the molecule itself; assay: AUC; sedimentation velocity, 20 °C, 0.1 mg/ml, 50 mM Tris pH 7.0, 0.2 M KF, after 24 h incubation
[3] = target: the molecule itself; assay: AUC; sedimentation velocity, 20 °C, 0.1 mg/ml, 50 mM Tris pH 7.0, 0.1 M KCl + 0.05 M MgCl2
[4] = target: the molecule itself; assay: AUC; sedimentation velocity, 20 °C, 0.1 mg/ml, 50 mM Tris pH 7.0, 1.0 M KCl

Molecule | NADH oxidation at 340 nm, OAA concentration profile [1] | NADH oxidation at 340 nm, OAA concentration profile (N. maga MalDH) | NADH oxidation at 340 nm, OAA concentration profile (H. mari MalDH) | NADH oxidation at 340 nm, OAA concentration profile (Anc80 MalDH) | NADH oxidation at 340 nm, OAA concentration profile (Anc88 MalDH) | stoichiometry N [2] | stoichiometry N [3] | stoichiometry N [4]
O=C(O)CC(=O)C(=O)O [oxaloacetate] | Anc78 and Anc80 MalDHs show a typical phenomenon of inhibition by an excess of substrate | the inhibition by high concentration of OAA is abolished (fig. 7C) | H. mari MalDH is not sensitive to inhibition by high concentration of OAA | Anc78 and Anc80 MalDHs show a typical phenomenon of inhibition by an excess of substrate | (Anc88), the inhibition by high concentration of OAA is abolished (fig. 7C) | – | – | –
B1 | – | – | – | – | – | 4 and 2 | 4 | 4
